BindingDB's records for PubMed 11160644 (Merck Frosst Centre For Therapeutic Research, 2001)

Molecular target: T1, Solute carrier organic anion transporter family member 1B1 (Homo sapiens, UniProt Q9Y6L6)
T1 sequence (Q9Y6L6 whole entry): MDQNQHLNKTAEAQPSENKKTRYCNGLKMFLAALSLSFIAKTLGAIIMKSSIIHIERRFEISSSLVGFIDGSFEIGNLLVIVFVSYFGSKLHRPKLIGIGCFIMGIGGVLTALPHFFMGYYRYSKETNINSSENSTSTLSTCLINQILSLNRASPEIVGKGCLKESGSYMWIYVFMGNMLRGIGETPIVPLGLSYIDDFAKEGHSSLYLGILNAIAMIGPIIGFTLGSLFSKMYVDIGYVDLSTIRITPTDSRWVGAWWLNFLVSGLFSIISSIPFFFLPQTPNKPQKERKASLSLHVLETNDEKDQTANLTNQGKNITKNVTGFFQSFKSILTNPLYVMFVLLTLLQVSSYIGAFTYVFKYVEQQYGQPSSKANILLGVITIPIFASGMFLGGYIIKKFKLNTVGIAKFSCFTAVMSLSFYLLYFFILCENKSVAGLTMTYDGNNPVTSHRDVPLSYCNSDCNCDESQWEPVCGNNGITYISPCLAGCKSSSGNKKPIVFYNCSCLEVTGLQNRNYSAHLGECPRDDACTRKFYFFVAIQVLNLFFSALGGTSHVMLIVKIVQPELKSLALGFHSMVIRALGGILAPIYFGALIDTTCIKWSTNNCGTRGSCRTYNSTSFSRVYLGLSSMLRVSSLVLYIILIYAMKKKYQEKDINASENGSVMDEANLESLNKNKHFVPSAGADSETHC

Row | SMILES | Ki
1 | Cc1ccc(-c2ncc(Cl)cc2-c2ccc(S(C)(=O)=O)cc2)cn1 | > 10000 nM
2 | COc1ccc2c(c1)c(CC(=O)O)c(C)n2C(=O)c1ccc(Cl)cc1 [indometacin] | 2 nM
